# Reference: patent publication US12275711B2, “Compounds having excited state intramolecular proton transfer (ESIPT) character for use in treating and/or preventing sunburn and/or preventing U.V. damage” (UNIVERSITY OF THE WITWATERSRAND, JOHANNESBURG, priority 2019, dated 2025)
# Like-named read-outs stand apart in the source and are kept apart here.
# Columns and labels:
# [1] = UV absorbance, molar absorptivity coefficients (ε) of the synthesized compounds; type: physicochemical
# Procedure: The synthesized compounds 4c, 5, 6, 9, 10, 13a, 13b, 14, 20, 21, and 23, were analysed for their UV absorbances and their molar absorptivity coefficients (e) were determined.
# [2] = in L mol-1 cm-1, cited from earlier work
smiles,measurement,setting,value
"CCCCCCCCCCCCCCCc1ccc2c(=O)c(O)c(-c3ccccc3)oc2c1 [Compound 13b, 3-Hydroxy-7-pentadecyl-2-phenyl-4H-chromen-4-one]",experimental ε value (molar absorptivity coefficient),[1]; at 314 nm,39900 L/mol/cm
same,experimental ε value (molar absorptivity coefficient),[1]; at 345 nm,45000 L/mol/cm
"CCCCCCCCCCCCCCCc1cc(O)c2c(=O)c3c(O)cccc3oc2c1 [Compound 14, 1,8-Dihydroxy-3-pentadecyl-9H-xanthen-9-one]",ε value (molar absorptivity coefficient),[1]; at 254 nm,23800 L/mol/cm
"CCCCCCCCCCCCCCCc1ccc(-c2nc(-c3ccccc3)nc(-c3ccccc3)n2)c(O)c1 [Compound 20, 2-(4,6-Diphenyl-1,3,5-triazin-2-yl)-5-pentadecylphenol]",ε value (molar absorptivity coefficient),[1]; at 278 nm,"29,252 L mol^−1 cm^−1"
COc1ccc(C(=O)c2ccccc2)c(O)c1 [oxybenzone],experimental molar absorption coefficient,[2]; at 287 nm,"15,150"
"CCCCCCCCCCCCCCCc1ccc(C(=O)/C=C/c2ccccc2)c(O)c1 [Compound 13a, (E)-1-(2-hydroxy-4-pentadecylphenyl)-3-phenylprop-2-en-1-one]",experimental ε value (molar absorptivity coefficient),[1]; at 314 nm,"20,403 L mol^−1 cm^−1"
COc1ccc(C(=O)CC(=O)c2ccc(C(C)(C)C)cc2)cc1 [avobenzone],experimental molar absorption coefficient,[2]; at 310 nm,"31,670"
"CCCCCCCCCCCCCCCc1ccc(C(=O)c2ccccc2O)c(O)c1 [Compound 10, (2-hydroxy-4-pentadecylphenyl)(2-hydroxyphenyl)methanone]",experimental ε value (molar absorptivity coefficient),[1]; at 282 nm,31700 L/mol/cm
CCCCC(CC)COC(=O)C=Cc1ccc(OC)cc1 (centres unmarked) [2-ethylhexyl 4-methoxycinnamate],experimental molar absorption coefficient,[2]; at 356 nm,"39,470"
"CCCCCCCCCCCCCCCc1ccc(-c2nc(-c3ccc(CCCCCCCCCCCCCCC)cc3O)nc(-c3ccc(CCCCCCCCCCCCCCC)cc3O)n2)c(O)c1 [Compound 21, 6,6′,6″-(1,3,5-Triazine-2,4,6-triyl)tris(3-pentadecylphenol)]",experimental ε value (molar absorptivity coefficient),[1]; at 300 nm,"21,452 L mol^−1 cm^−1"
same,experimental ε value (molar absorptivity coefficient),[1]; at 364 nm,12500 L/mol/cm
"CCCCCCCCCCCCCCCc1cccc(O)c1C(=O)c1ccccc1O [Compound 4c, [2-(Hydroxy)-6-pentadecylphenyl](2-hydroxyphenyl)methanone]",experimental ε value (molar absorptivity coefficient),[1]; at 261 nm,"36,366 L mol^−1 cm^−1"
same,experimental ε value (molar absorptivity coefficient),[1]; at 335 nm,"10,538 L mol^−1 cm^−1"
"CCCCCCCCCCCCCCCc1cccc(O)c1C(=O)c1cc(OC)c(OC)cc1O [Compound 6, (2-Pentadecyl-6-hydroxyphenyl)(2-hydroxy-4,5-dimethoxyphenyl)methanone]",ε value (molar absorptivity coefficient),[1]; at 287 nm,"34,096 L mol^−1 cm^−1"
same,ε value (molar absorptivity coefficient),[1]; at 358 nm,"25,014 L mol^−1 cm^−1"
"CCCCCCCCCCCCCCCc1ccc(C(=O)c2ccccc2)c(O)c1 [Compound 9, (2-Hydroxy-4-pentadecylphenyl)(phenyl)methanone]",experimental ε value (molar absorptivity coefficient),[1]; at 279 nm,"47,909 L mol^−1 cm^−1"
"CCCCCCCCCCCCCCCc1ccc(-c2nnc(-c3ccc(OC)c(OC)c3)o2)c(O)c1 [Compound 23, 2-[5-(3,4-Dimethoxyphenyl)-1,3,4-oxadiazol-2-yl]-5-pentadecylphenol]",experimental ε value (molar absorptivity coefficient),[1]; at 293 nm,"3,373 L mol^−1 cm^−1"
same,experimental ε value (molar absorptivity coefficient),[1]; at 326 nm,"6,367 L mol^−1 cm^−1"
"CCCCCCCCCCCCCCCc1cccc(O)c1C(=O)c1cc(OC)ccc1O [Compound 5, (2-Hydroxy-5-methoxyphenyl)(2-hydroxy-6-pentadecylphenyl)methanone]",ε value (molar absorptivity coefficient),[1]; at 265 nm,"18,439 L mol^−1 cm^−1"
same,ε value (molar absorptivity coefficient),[1]; at 374 nm,"8,785 L mol^−1 cm^−1"
